Reference: patent publication US7371555B2, “Polypeptides having α-H-α-amino acid amide racemase activity and nucleic acids encoding the same” (DSM IP Assets B.V., priority 2002, dated 2008)

Experiments:
[1] = test system: E. coli DH10B/pOA(1)PLV49B10 cells containing the α-H-α-amino acid amide racemase gene from Ochrobactrum anthropi IA; test: Racemase activity test with D-leucine amide and whole E. coli cells (Example 5); type: cell-based; settings: Strain A
Description: A single colony of E. coli DH10B containing plasmid pOA(1)PLV49B10 was transferred to LB medium with kanamycin (50 mg/l) to prepare a pre-culture. After overnight incubation at 28° C. and 200 rpm, this pre-culture was used to inoculated a flask with 500 ml of 2*TY medium (10 g/l Yeast extract, 16 g/l Tryptone, 5 g/l NaCl) containing kanamycin (50 mg/l). After overnight growth at 28° C. (OD620nm=4.4) and 200 rpm, cells were harvested by centrifugation (15 min. at 6,200×g, 4° C.), and washed with 50 mM HEPES-NaOH buffer of pH 7.7.
The cell pellets from both cultures were subsequently washed and resuspended in 25 ml of 50 mM HEPES-NaOH buffer, pH 7.7. Aliquots of 2 ml of both cell suspensions were centrifuged once more and the pellets were stored at −20° C. until execution of the activity tests described below. The remaining part of these cell suspensions was stored at −20° C. for use in Example 6.
To determine the activity of E. coli/pOA(1)PLV49B10 and the E. coli control, the above-mentioned cell pellets were thawed and resuspended to a total volume of 1 ml with 50 mM HEPES-NaOH buffer, pH 7.7. Then, reaction mixtures of 10 ml each were prepared containing 50 mM HEPES-NaOH buffer (pH 7.7), 10 μM pyridoxal-5-phosphate (PLP), 2.5 wt % of D-leucine amide, if applicable 20 mM of EDTA to suppress the E. coli amidase activity, and 0.5 ml of the E. coli/pOA(1)PLV49B10 and E. coli DH10B/pZErO-GFPuv-wrong-orientation cell suspensions or water (for chemical blanks). Reactions were started by the addition of the cells. Reaction mixtures were incubated at 30° C. and 175 rpm. Directly after addition of the cells (t=0 hours) and after 27 and 43 hours samples were taken in which the reaction was stopped by removal of the cells via centrifugation followed by 0.22 μM filtration. Finally, the filtered samples were stored at −20° C. until analysis by chiral HPLC as described below: • column: Sumichiral OA5000 from Sumika (150×4.6 mm I.D., 5μ)+guard column • eluent: 85 v/v % 2 mM CuSO4+15 v/v % methanol • flow: 1.0 ml/min. • column temp.: 40° C. • inj. volume: 5 μl • detection: fluorescence detection after post-column reaction with o-phthalaldehyde and 2-mercaptoethanol (wavelength ex=338 nm and em>420 nm)

[2] = test system: E. coli clone containing the O. anthropi IA α-H-α-amino acid amide racemase gene (pOa(1)PLV49B10); test: Confirmation of potential positive clone of the O. anthropi IA gene library; type: cell-based, Ochrobactrum anthropi IA; settings: 70 mM substrate, 20 h at 30° C.
Description: Of all 32 potential positive clones identified in the screening, material from the masterplates was used to inoculate 3 ml of liquid screening medium containing 50 mg/l kanamycin. After growth for 2 days at 30° C., cells were collected by centrifuging 2 ml of these cell cultures. Then the cell pellets were washed four times in 25 mM Tris-HCl buffer, pH 7.5. Subsequently, the cell pellets were resuspended in 100 μl substrate solution containing 70 mM of D-phenylalanine amide, or D-leucine amide, or D-valine amide in 50 mM Tris-HCl, pH 7.5 and 1 mM MnCl2. After incubation for 20 h at 30° C., the reactions were stopped by the addition of 100 μl of 0.15 M HCl, after which the reaction mixtures were analyzed by the HPLC method described in Example 1.
This clone contained the O. anthropi IA α-H-α-amino acid amide racemase gene on its 7.7 kb plasmid. This was concluded from the fact that transformation of this plasmid into E. coli TOP10 cells inevitably led to recombinant cells that converted D-leucine amide into L-Leucine. […] The sequence of this gene is listed as nucleotides 98 to 1417 (including the TAA stopcodon) of SEQ ID NO:1 encoding the protein of SEQ ID: NO. 2 as presented infra.

[3] = test system: disintegrated cells of Agrobacterium rhizogenes Na; test: α-H-α-amino acid amide racemase activity test with disintegrated cells; type: biochemical; settings: incubation time 139 h; 0.79 w/w % D-leucine amide
Description: (§1) After growth of these three strains in Medium A containing 2 g/l of D-α-amino-ε-caprolactam, cells were harvested by centrifugation at 12,000×g. After centrifugation the supernatant was decanted and the wet weight of the pellet was measured. To the pellet, sonification buffer (NaCl, 16 g/l; KCl, 0.74 g/l; Na2HPO4, 0.27 g/l; glucose, 2 g/l; HEPES, 10 g/l, pH 7.0) was added in a 1:2 ratio (wet weight cell pellet:ml buffer). During storage between cell harvest and sonification the pellet was frozen in the sonification buffer at −86° C.
(§2) Sonification was performed with a Soniprep 150 of MSE at maximal amplitude of 20 microns in periods of 10 min. using time intervals of 10 sec. (i.e., 10 sec. sonification, 10 sec. cooling down), cooling the sample on ice/acetone. Each 10 min. the cells were viewed microscopically. The sonification procedure was stopped when >70% of the cells were broken.
(§3) 1 ml Of disintegrated cells of each of the three strains was incubated in a HEPES-NaOH buffer (20 mM) pH 7.7, to which pyridoxal-5-phosphate (0.01 mM) was added as a cofactor and D-leucine amide (60.8 mM) as a substrate in a total volume of 10 ml (0.79 w/w % D-leucine amide). After 0 and 139 hours 1 ml samples were taken (of which the exact weight was measured) and the reaction in these samples was stopped by adding 1 ml methanol (of which the exact weight was measured too; to be able to calculate dilution factors). Stopped reaction mixtures were centrifuged to remove particulates. The supernatants were frozen at −86° C. until HPLC analysis according to the method given in Example 1.

[4] = test system: disintegrated cells of Agrobacterium rhizogenes Bi; test: as above; type: biochemical; settings: incubation time 139 h; 0.79 w/w % D-leucine amide
Description: as §1, §2, §3

[5] = test system: disintegrated cells of Arthrobacter nicotianae; test: as above; type: biochemical; settings: incubation time 139 h; 0.79 w/w % D-leucine amide
Description: as §1, §2, §3

[6] = with 20 mM EDTA, incubation time 27 h
[7] = with 20 mM EDTA, incubation time 43 h
[8] = without 20 mM EDTA, incubation time 27 h
[9] = without 20 mM EDTA, incubation time 43 h

## CC(C)C[C@@H](N)C(N)=O [D-leucine amide]
[1]; with 20 mM EDTA, incubation time 0 h
  D-leucine amide: 2.61 wt %
[1]; [6]
  D-leucine: 0.003 wt %
  D-leucine amide: 1.77 wt %
  L-leucine: 0.313 wt %
  L-leucine amide: 0.555 wt %
[1]; [7]
  D-leucine: 0.006 wt %
  D-leucine amide: 1.59 wt %
  L-leucine: 0.345 wt %
  L-leucine amide: 0.772 wt %
[1]; without 20 mM EDTA, incubation time 0 h
  D-leucine amide: 2.63 wt %
[1]; [8]
  D-leucine: 0.009 wt %
  D-leucine amide: 1.03 wt %
  L-leucine: 1.71 wt %
  L-leucine amide: 0.170 wt %
[1]; [9]
  D-leucine: 0.017 wt %
  D-leucine amide: 0.512 wt %
  L-leucine: 2.12 wt %
  L-leucine amide: 0.063 wt %
[2]
  formation of L-leucine from D-leucine amide: significant formation of L-leucine
[3]
  D-leucine: 0.036 w/w %
  D-leucine amide: 0.51 w/w %
  L-leucine: 0.078 w/w %
[4]
  D-leucine: 0.013 w/w %
  D-leucine amide: 0.61 w/w %
  L-leucine: 0.025 w/w %
[5]
  D-leucine: 0.002 w/w %
  D-leucine amide: 0.56 w/w %
  L-leucine: 0.068 w/w %
